Columns and labels:
D(1A) dopamine receptor [1] = biological target: T1, D(1A) dopamine receptor (Homo sapiens, UniProt P21728); test: Displacement of [3H]SCH23390 from D1 receptor (unknown origin) transfected in HEK293T cells at 10 uM after 50 mins by liquid scintillation counting analysis; assay type: cell-based; settings: HEK-293T
D(1A) dopamine receptor [2] = biological target: T1, D(1A) dopamine receptor; test: Displacement of [3H]SCH23390 from D1 receptor (unknown origin) transfected in HEK293T cells after 50 mins by liquid scintillation counting analysis; assay type: cell-based, HEK-293T
D(2) dopamine receptor [3] = biological target: T2, D(2) dopamine receptor (Homo sapiens, UniProt P14416); test: Displacement of [3H]Spiperone from D2 receptor (unknown origin) transfected in HEK293T cells at 10 uM after 50 mins by liquid scintillation counting analysis; assay type: cell-based; settings: HEK-293T
D(2) dopamine receptor [4] = biological target: T2, D(2) dopamine receptor; test: Displacement of [3H]Spiperone from D2 receptor (unknown origin) transfected in HEK293T cells after 50 mins by liquid scintillation counting analysis; assay type: cell-based, HEK-293T
[5] = biological target: T3, 5-hydroxytryptamine receptor 1A (Homo sapiens) (UniProt P08908); test: Displacement of [3H]8-OH-DPAT from 5HT1A receptor (unknown origin) transfected in HEK293T cells at 10 uM after 50 mins by liquid scintillation counting analysis; assay type: cell-based; settings: HEK-293T
T3 sequence (whole entry): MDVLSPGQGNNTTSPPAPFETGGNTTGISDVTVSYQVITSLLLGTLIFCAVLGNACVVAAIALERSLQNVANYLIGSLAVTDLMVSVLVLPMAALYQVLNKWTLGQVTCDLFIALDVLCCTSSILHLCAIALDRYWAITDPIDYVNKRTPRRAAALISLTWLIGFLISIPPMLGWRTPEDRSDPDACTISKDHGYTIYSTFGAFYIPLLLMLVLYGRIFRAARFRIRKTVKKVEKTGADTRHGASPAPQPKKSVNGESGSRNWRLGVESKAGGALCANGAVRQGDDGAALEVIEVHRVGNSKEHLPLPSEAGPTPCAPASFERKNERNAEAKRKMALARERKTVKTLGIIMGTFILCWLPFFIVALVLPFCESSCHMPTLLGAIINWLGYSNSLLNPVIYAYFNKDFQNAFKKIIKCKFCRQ

[6] = biological target: 5-hydroxytryptamine receptor 2A (Homo sapiens) (UniProt P28223); test: Displacement of [3H]Ketanserin from 5HT2A receptor (unknown origin) transfected in HEK293T cells at 10 uM after 15 mins by liquid scintillation counting analysis; assay type: cell-based; settings: HEK-293T
[7] = biological target: T4, 5-hydroxytryptamine receptor 1A (Homo sapiens, UniProt P08908); test: Displacement of [3H]8-OH-DPAT from 5HT1A receptor (unknown origin) transfected in HEK293T cells after 50 mins by liquid scintillation counting analysis; assay type: cell-based, HEK-293T
T4 sequence (P08908 whole entry): T3 sequence (whole entry)

D(3) dopamine receptor = D(3) dopamine receptor (Homo sapiens, UniProt P35462); test: Displacement of [3H]Spiperone from D3 receptor (unknown origin) transfected in HEK293T cells after 50 mins by liquid scintillation counting analysis; assay type: cell-based, HEK-293T
D(1A) dopamine receptor [8] = biological target: T1, D(1A) dopamine receptor; test: Antagonist activity at D1 receptor (unknown origin) after 40 mins by [35S]GTP-gammaS binding assay in presence of SKF38393; assay type: functional
D(2) dopamine receptor [9] = biological target: T2, D(2) dopamine receptor; test: Antagonist activity at D2 receptor (unknown origin) after 40 mins by [35S]GTP-gammaS binding assay in presence of quinpirole; assay type: functional
[10] = biological target: T4, 5-hydroxytryptamine receptor 1A; test: Agonist activity at 5HT1A receptor (unknown origin) after 20 mins by [35S]GTP-gammaS binding assay; assay type: functional
D(1A) dopamine receptor [11] = biological target: T1, D(1A) dopamine receptor; test: Agonist activity at D1 receptor (unknown origin) after 40 mins by [35S]GTP-gammaS binding assay; assay type: functional

T1 sequence (P21728 whole entry): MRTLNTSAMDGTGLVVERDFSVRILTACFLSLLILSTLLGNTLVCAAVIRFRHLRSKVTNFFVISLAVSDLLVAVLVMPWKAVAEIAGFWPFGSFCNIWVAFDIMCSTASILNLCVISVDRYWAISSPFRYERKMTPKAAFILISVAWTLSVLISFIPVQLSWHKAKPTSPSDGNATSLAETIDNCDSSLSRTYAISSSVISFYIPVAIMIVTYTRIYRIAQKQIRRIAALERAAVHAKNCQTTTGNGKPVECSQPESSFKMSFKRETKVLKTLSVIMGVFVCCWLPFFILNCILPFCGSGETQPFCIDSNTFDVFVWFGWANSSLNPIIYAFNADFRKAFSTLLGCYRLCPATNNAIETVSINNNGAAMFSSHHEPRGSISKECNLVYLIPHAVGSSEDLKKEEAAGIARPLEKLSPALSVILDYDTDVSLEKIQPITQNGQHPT
Sequence of D(3) dopamine receptor (P35462 whole entry): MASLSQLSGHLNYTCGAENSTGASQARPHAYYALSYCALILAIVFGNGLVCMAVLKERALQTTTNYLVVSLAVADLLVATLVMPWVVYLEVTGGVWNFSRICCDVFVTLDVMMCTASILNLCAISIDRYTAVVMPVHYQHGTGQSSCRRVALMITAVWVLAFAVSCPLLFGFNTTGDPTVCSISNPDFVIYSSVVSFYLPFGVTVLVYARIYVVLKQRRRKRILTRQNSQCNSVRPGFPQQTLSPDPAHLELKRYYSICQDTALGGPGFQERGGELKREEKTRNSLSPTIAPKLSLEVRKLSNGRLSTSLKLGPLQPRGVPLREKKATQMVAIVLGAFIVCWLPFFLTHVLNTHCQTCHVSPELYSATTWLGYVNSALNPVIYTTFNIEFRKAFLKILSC
T2 sequence (P14416 whole entry): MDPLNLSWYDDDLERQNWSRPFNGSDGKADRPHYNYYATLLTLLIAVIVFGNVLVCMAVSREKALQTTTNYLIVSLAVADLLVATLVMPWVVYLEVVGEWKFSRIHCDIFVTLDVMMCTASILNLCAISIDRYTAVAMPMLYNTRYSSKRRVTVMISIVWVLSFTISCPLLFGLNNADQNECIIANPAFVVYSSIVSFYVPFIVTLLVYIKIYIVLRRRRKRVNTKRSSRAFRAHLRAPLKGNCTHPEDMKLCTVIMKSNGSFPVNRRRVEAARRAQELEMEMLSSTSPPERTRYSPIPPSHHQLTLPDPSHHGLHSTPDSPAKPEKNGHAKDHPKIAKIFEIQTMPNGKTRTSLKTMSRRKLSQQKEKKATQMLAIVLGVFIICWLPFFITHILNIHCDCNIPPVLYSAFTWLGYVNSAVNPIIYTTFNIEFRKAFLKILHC
Sequence of 5-hydroxytryptamine receptor 2A (Homo sapiens) (P28223 whole entry): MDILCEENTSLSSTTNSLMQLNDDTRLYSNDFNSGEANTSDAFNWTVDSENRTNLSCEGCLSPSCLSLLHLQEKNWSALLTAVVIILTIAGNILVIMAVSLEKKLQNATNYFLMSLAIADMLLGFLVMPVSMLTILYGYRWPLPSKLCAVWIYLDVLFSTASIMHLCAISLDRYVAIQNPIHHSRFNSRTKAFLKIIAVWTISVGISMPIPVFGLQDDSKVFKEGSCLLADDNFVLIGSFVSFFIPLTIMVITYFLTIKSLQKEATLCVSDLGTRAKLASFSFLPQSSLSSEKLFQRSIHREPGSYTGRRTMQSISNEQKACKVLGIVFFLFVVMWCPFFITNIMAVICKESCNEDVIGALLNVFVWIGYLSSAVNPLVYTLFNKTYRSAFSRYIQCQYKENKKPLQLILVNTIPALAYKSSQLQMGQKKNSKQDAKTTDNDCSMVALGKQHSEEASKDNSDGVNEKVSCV

Structure (SMILES)	inhibition (D(1A) dopamine receptor [1]) [%]	Ki (D(1A) dopamine receptor [2]) [µM]	inhibition (D(2) dopamine receptor [3]) [%]	Ki (D(2) dopamine receptor [4]) [µM]	inhibition [5] [%]	inhibition [6] [%]	Ki [7] [µM]	Ki (D(3) dopamine receptor) [µM]	IC50 (D(1A) dopamine receptor [8]) [µM]	IC50 (D(2) dopamine receptor [9]) [µM]	EC50 [10] [µM]	EC50 (D(1A) dopamine receptor [11]) [µM]
CCC(C)Cc1cc2c(s1)C[C@H]1c3cc(O)c(OC)cc3CCN1C2 (some centres undefined)	92	0.403	102	0.0291	69.4	33.4						
COc1cc2c(cc1O)[C@@H]1Cc3sc(CC(C)Cl)cc3CN1CC2 (some centres undefined)	91.5	0.0458	105	0.0165	91.6	52.1	0.285					
CCCCc1cc2c(s1)C[C@H]1c3cc(O)c(OC)cc3CCN1C2	98.6	0.0622	99.5	0.0176	90	53.3		0.0399	0.6	0.91	0.85	
COc1cc2c(cc1O)[C@@H]1Cc3sc(CCCl)cc3CN1CC2	96.7	0.0164	98.4	0.0344	90.8	34.8						
COc1cc2c(cc1O)[C@@H]1Cc3sc(CCCCl)cc3CN1CC2	94.3	0.077	97.2	0.0184	92.2	62.1						
COc1cc2c(cc1O)[C@@H]1Cc3sc(CC4CC4)cc3CN1CC2	96.8	0.0662	99	0.0115	96.1	39.3	0.175					
COc1cc2c(cc1O)[C@@H]1Cc3sc(CC4CCC4)cc3CN1CC2	97.1	0.379	98.7	0.0342	93.7	44.9	0.778					
COc1cc2c(cc1O)[C@@H]1Cc3sc(CCCC(C)C)cc3CN1CC2	68.1		89		36.3	34.9						
COc1cc2c(cc1O)[C@@H]1Cc3sccc3CN1CC2	98.1	0.087	95.8	0.088	89.7	82.3						
COc1cc2c(cc1O)[C@@H]1Cc3ccc(O)c(OC)c3CN1CC2 [STEPHOLIDINE]		0.0123		0.105				0.09		4.38		0.023
COc1cc2c(cc1O)[C@@H]1Cc3sc(CCC(C)C)cc3CN1CC2	88.8		90.5	0.0795	86.9	50.5						
COc1cc2c(cc1O)[C@@H]1Cc3sc(CC(C)C)cc3CN1CC2	97.6	0.128		0.00754	83.7	50.3		0.0199	2.01	0.16	0.59	
CCc1cc2c(s1)C[C@H]1c3cc(O)c(OC)cc3CCN1C2	98.2	0.0263	98.5	0.0408	92.1	45.1						
CCCc1cc2c(s1)C[C@H]1c3cc(O)c(OC)cc3CCN1C2	98.2	0.0617	96.3	0.0386	85.3	29.6						
CCCCCc1cc2c(s1)C[C@H]1c3cc(O)c(OC)cc3CCN1C2	94.7	0.133	103	0.0467	81.7	45.9						
COc1cc2c(cc1O)[C@@H]1Cc3sc(CCCCCl)cc3CN1CC2	91.1	0.719	103	0.012	91.9	39.6	0.655					
COc1cc2c(cc1O)[C@@H]1Cc3sc(CC(C)(C)C)cc3CN1CC2	93.8	0.634	97	0.19	79.8	19.3						
